The molecules below were run against T1, recombinant human GST-SYK (Homo sapiens, UniProt P43405) (assay: Homogeneous Time-Resolved Fluorescence (HTRF) assay for the recombinant human Syk enzyme). Conditions: GST-hSYK 5 pM, ATP 25 μM, 10-dose titration 10 μM to 0.508 nM; read-out: IC50.
T1 construct: purchased Carna Biosciences 08-176
Type: biochemical
Experimental: Homogeneous Time-Resolved Fluorescence (HTRF) Assay for the Recombinant Human Syk Enzyme
A recombinant GST-hSYK fusion protein was used to measure potency of compounds to inhibit human Syk activity. […] Final volume of the reaction was 10 μL. Phosphorylation of the peptide was allowed to proceed for 45 minutes at room temperature. To quench the reaction and detect the phosphorylated product, 2 nM of a Europium-anti-phosphotyrosine antibody (Perkin Elmer #AD0161) and 70 nM SA-APC (Perkin-Elmer #CR130-100) were added together in 15 mM Tris pH 7.5, 40 mM EDTA, 0.01% tween 20. Final volume of the quenching solution was 10 μL. The resulting HTRF signal was measured after 30 minutes on an EnVision (Perkin-Elmer) reader using a time-resolved fluorescence protocol.

| IC50 | Structure (SMILES) |
| --- | --- |
| 770 nM | Cc1cc(C)nc(Nc2cc(N[C@@H]3C[C@H]3N)cnc2C(N)=O)c1 (relative stereo) [Example 2.13, rel-5-{[(1R,2R)-2-aminocyclopropyl]amino}-3-[(4,6-dimethylpyridin-2-yl)amino]pyridine-2-carboxamide] |

Same assay, conditions: GST-hSYK 5 pM, ATP 25 μM, 10-dose titration 10 μM to 0.508 nM; read-out: rhSYK Activity (IC50 rating)

| Structure (SMILES) | IC50 |
| --- | --- |
| Cc1nc(Nc2cc(N[C@@H]3CCCC[C@@H]3N)cnc2C(N)=O)ccc1-c1cncnc1 [Example 3.25, 5-{[(1R,2S)-2-aminocyclohexyl]amino}-3-[(6-methyl-5-pyrimidin-5-ylpyridin-2-yl)amino]pyridine-2-carboxamide] | < 10 nM |
| Cc1cccc(Nc2cc(N[C@@H]3CCCC[C@@H]3N)cnc2C(N)=O)n1 [Example 1.7, 5-{[(1R,2S)-2-aminocyclohexyl]amino}-3-[(6-methylpyridin-2-yl)amino]pyridine-2-carboxamide] | < 10 nM |
| CN1CCN(c2cccc(Nc3cc(N[C@@H]4CCCC[C@@H]4N)cnc3C(N)=O)n2)CC1 [Example 1.119, 5-{[(1R,2S)-2-aminocyclohexyl]amino}-3-{[6-(4-methylpiperazin-1-yl)pyridin-2-yl]amino}pyridine-2-carboxamide] | < 10 nM |
| Cc1nc(Nc2cc(N[C@@H]3CCCC[C@@H]3N)cnc2C(N)=O)ccc1-c1ccc(C(=O)O)cc1 [Example 3.5, 4-{6-[(5-{[(1R,2S)-2-aminocyclohexyl]amino}-2-carbamoylpyridin-3-yl)amino]-2-methylpyridin-3-yl}benzoic acid] | < 10 nM |
| NC(=O)c1ncc(N[C@@H]2CCCC[C@@H]2N)cc1Nc1ccc2ccccc2n1 [Example 1.9, 5-{[(1R,2S)-2-aminocyclohexyl]amino}-3-(quinolin-2-ylamino)pyridine-2-carboxamide] | < 10 nM |
| Cc1nc(Nc2cc(N[C@@H]3CCCC[C@@H]3N)cnc2C(N)=O)ccc1-c1cccc(N2CCN(C)CC2)c1 [Example 3.14, 5-{[(1R,2S)-2-aminocyclohexyl]amino}-3-({6-methyl-5-[3-(4-methylpiperazin-1-yl)phenyl]pyridin-2-yl}amino)pyridine-2-carboxamide] | < 10 nM |
| COC[C@H](N)CNc1cnc(C(N)=O)c(Nc2cccc(-n3nccn3)n2)c1 [Example 1.82, 5-{[(2R)-2-amino-3-methoxypropyl]amino}-3-{[6-(2H-1,2,3-triazol-2-yl)pyridin-2-yl]amino}pyridine-2-carboxamide] | < 10 nM |
| Cc1cccc(-c2ccc(Nc3cc(N[C@@H]4CCCC[C@@H]4N)cnc3C(N)=O)nc2C)c1O [Example 3.28, 5-{[(1R,2S)-2-aminocyclohexyl]amino}-3-{[5-(2-hydroxy-3-methylphenyl)-6-methylpyridin-2-yl]amino}pyridine-2-carboxamide] | 10 to 100 nM |
| Cn1ccc(Nc2cc(N[C@@H]3CCCC[C@@H]3N)cnc2C(N)=O)n1 [Example 1.33, 5-{[(1R,2S)-2-aminocyclohexyl]amino}-3-[(1-methyl-1H-pyrazol-3-yl)amino]pyridine-2-carboxamide] | 10 to 100 nM |
| Cn1ncc2c(Nc3cc(N[C@@H]4CCCC[C@@H]4N)cnc3C(N)=O)nc(-c3ccccc3)nc21 [Example 1.69, 5-{[(1R,2S)-2-aminocyclohexyl]amino}-3-[(1-methyl-6-phenyl-1H-pyrazolo[3,4-d]pyrimidin-4-yl)amino]pyridine-2-carboxamide] | < 10 nM |
| CCn1cnc(Nc2cc(N[C@@H]3CCCC[C@@H]3N)cnc2C(N)=O)n1 [Example 1.56, 5-{[(1R,2S)-2-aminocyclohexyl]amino}-3-[(1-ethyl-1H-1,2,4-triazol-3-yl)amino]pyridine-2-carboxamide] | 100 to 1000 nM |
| NC(=O)c1ncc(N[C@@H]2CCCC[C@@H]2N)cc1Nc1ccn(Cc2ccccc2)n1 [Example 1.50, 5-{[(1R,2S)-2-aminocyclohexyl]amino}-3-[(1-benzyl-1H-pyrazol-3-yl)amino]pyridine-2-carboxamide] | 10 to 100 nM |
| CC(C)(O)COCc1cccc(Nc2cc(N[C@@H]3CCCC[C@@H]3N)cnc2C(N)=O)n1 [Example 1.120, 5-{[(1R,2S)-2-aminocyclohexyl]amino}-3-({6-[(2-hydroxy-2-methylpropoxy)methyl]pyridin-2-yl}amino)pyridine-2-carboxamide] | < 10 nM |
| Cc1nc(Nc2cc(N[C@@H]3CCCC[C@@H]3N)cnc2C(N)=O)ccc1-c1ccc(OC(F)F)cc1 [Example 3.10, 5-{[(1R,2S)-2-aminocyclohexyl]amino}-3-({5-[4-(difluoromethoxy)phenyl]-6-methylpyridin-2-yl}amino)pyridine-2-carboxamide] | < 10 nM |
| NC(=O)c1ncc(N[C@H]2[C@@H](N)CCCC2(F)F)cc1Nc1ccn(-c2ccc(F)cc2)n1 [Example 1.87, 5-{[(1S,6S)-6-amino-2,2-difluorocyclohexyl]amino}-3-{[1-(4-fluorophenyl)-1H-pyrazol-3-yl]amino}pyridine-2-carboxamide] | < 10 nM |
| Cc1nc(Nc2cc(N[C@@H]3CCCC[C@@H]3N)cnc2C(N)=O)ccc1-c1ccc(-c2ncco2)cc1 [Example 3.30, 5-{[(1R,2S)-2-aminocyclohexyl]amino}-3-({6-methyl-5-[4-(1,3-oxazol-2-yl)phenyl]pyridin-2-yl}amino)pyridine-2-carboxamide] | < 10 nM |
| Cc1nc(Nc2cc(N[C@@H]3CCCC[C@@H]3N)cnc2C(N)=O)ccc1-c1ccc2c(c1)CNC2=O [Example 3.17, 5-{[(1R,2S)-2-aminocyclohexyl]amino}-3-{[6-methyl-5-(1-oxo-2,3-dihydro-1H-isoindol-5-yl)pyridin-2-yl]amino}pyridine-2-carboxamide] | < 10 nM |
| Cc1cc(OCc2ccccc2)cc(Nc2cc(N[C@@H]3CCCC[C@@H]3N)cnc2C(N)=O)n1 [Example 5.3, 5-{[(1R,2S)-2-aminocyclohexyl]amino}-3-{[4-(benzyloxy)-6-methylpyridin-2-yl]amino}pyridine-2-carboxamide] | < 10 nM |

The next lines start with the values.

| IC50 | Structure (SMILES) |
| --- | --- |
| 10 to 100 nM | Cc1cc(C)nc(Nc2cc(NCC3(N)CCOC3)cnc2C(N)=O)c1 (stereo not drawn) [Example 1.35, 5-{[(3-aminotetrahydrofuran-3-yl)methyl]amino}-3-[(4,6-dimethylpyridin-2-yl)amino]pyridine-2-carboxamide] |
| < 10 nM | Cc1nc(Nc2cc(NC[C@H](C)N)cnc2C(N)=O)ccc1Br [Example 2.2, 5-{[(2S)-2-aminopropyl]amino}-3-[(5-bromo-6-methylpyridin-2-yl)amino]pyridine-2-carboxamide] |
| 100 to 1000 nM | Cc1cc(C)nc(Nc2cc(N[C@@H]3C[C@H]3N)cnc2C(N)=O)c1 (relative stereo) [Example 2.13, rel-5-{[(1R,2R)-2-aminocyclopropyl]amino}-3-[(4,6-dimethylpyridin-2-yl)amino]pyridine-2-carboxamide] |
| < 10 nM | Cc1cc(C)nc(Nc2cc(N[C@@H]3[C@H](N)CCCC3(F)F)cnc2C(N)=O)c1 [Example 2.5, 5-{[(1R,6R)-6-amino-2,2-difluorocyclohexyl]amino}-3-[(4,6-dimethylpyridin-2-yl)amino]pyridine-2-carboxamide] |
| < 10 nM | Cc1cc(Nc2cc(N[C@@H]3CCCC[C@@H]3N)cnc2C(N)=O)nc(-c2cnc(C(C)(C)O)s2)c1 [Example 1.114, 5-{[(1R,2S)-2-aminocyclohexyl]amino}-3-({6-[2-(1-hydroxy-1-methylethyl)-1,3-thiazol-5-yl]-4-methylpyridin-2-yl}amino)pyridine-2-carboxamide] |
| < 10 nM | Cc1cc(Nc2cc(N[C@@H]3CCCC[C@@H]3N)cnc2C(N)=O)nc(-n2nccn2)c1 [Example 1.102, 5-{[(1R,2S)-2-aminocyclohexyl]amino}-3-{[4-methyl-6-(2H-1,2,3-triazol-2-yl)pyridin-2-yl]amino}pyridine-2-carboxamide] |
| 10 to 100 nM | Cc1cc(C)nc(Nc2cc(NC(CN)c3ccccc3)cnc2C(N)=O)c1 (stereo not drawn) [Example 1.23, 5-[(2-amino-1-phenylethyl)amino]-3-[(4,6-dimethylpyridin-2-yl)amino]pyridine-2-carboxamide] |
| < 10 nM | CSCC(N)CNc1cnc(C(N)=O)c(Nc2cc(C)cc(C)n2)c1 (stereo not drawn) [Example 2.8, 5-{[2-amino-3-(methylsulfanyl)propyl]amino}-3-[(4,6-dimethylpyridin-2-yl)amino]pyridine-2-carboxamide] |
| < 10 nM | Cc1cc(N2CCOCC2)cc(Nc2cc(N[C@@H]3CCCC[C@@H]3N)cnc2C(N)=O)n1 [Example 1.77, 5-{[(1R,2S)-2-aminocyclohexyl]amino}-3-[(6-methyl-4-morpholin-4-ylpyridin-2-yl)amino]pyridine-2-carboxamide] |
| < 10 nM | Cc1cc(C)nc(Nc2cc(N[C@@H](CC(C)C)C(N)=O)cnc2C(N)=O)c1 [Example 1.45, N^2-{6-carbamoyl-5-[(4,6-dimethylpyridin-2-yl)amino]pyridin-3-yl}- -leucinamide] |
| < 10 nM | Cc1cc(C)nc(Nc2cc(N[C@@H]3CCOC[C@@H]3N)cnc2C(N)=O)c1 [Example 1.130, 5-{[(3R,4R)-3-aminotetrahydro-2H-pyran-4-yl]amino}-3-[(4,6-dimethylpyridin-2-yl)amino]pyridine-2-carboxamide] |
| 100 to 1000 nM | CNC(=O)C(N)CNc1cnc(C(N)=O)c(Nc2cc(C)cc(C)n2)c1 (stereo not drawn) [Example 2.1, 5-{[2-amino-3-(methylamino)-3-oxopropyl]amino}-3-[(4,6-dimethylpyridin-2-yl)amino]pyridine-2-carboxamide] |
| < 10 nM | CCOCC(N)CNc1cnc(C(N)=O)c(Nc2cc(C)cc(C)n2)c1 (stereo not drawn) [Example 1.70, 5-[(2-amino-3-ethoxypropyl)amino]-3-[(4,6-dimethylpyridin-2-yl)amino]pyridine-2-carboxamide] |
| 10 to 100 nM | Cc1cc(C)nc(Nc2cc(NCC3(N)CCS(=O)(=O)CC3)cnc2C(N)=O)c1 [Example 1.29, 5-{[(4-amino-1,1-dioxidotetrahydro-2H-thiopyran-4-yl)methyl]amino}-3-[(4,6-dimethylpyridin-2-yl)amino]pyridine-2-carboxamide] |
